Source: US10202391B2, “Chemical compounds” (AstraZeneca AB, priority 2015, dated 2019)

Tested on: H2009 cell line
Assay: Combination cell growth inhibition (Sytox Green, Loewe synergy), H2009
Type: cell-based, human
Conditions: Example 18 with selumetinib, 6x6 dosing matrix 0-10 μmol/L, 3 days, Loewe model, average of three or more experiments
Excerpt: A549 is a human non small cell lung cancer line carrying an oncogenic mutation in the KRAS gene (G12S). H2122 is a human non small cell lung cancer line carrying an oncogenic mutation in the KRAS gene (G12C). H2009 is a human non small cell lung cancer line carrying an oncogenic mutation in the KRAS gene (G12A). Calu6 is a human non small cell lung cancer line carrying mutation in the KRAS ([…]) gene. All cell lines were obtained from the American Type Culture Collection.
All cell line were maintained at 37° C. and 5% CO2 in a humidified atmosphere and grown in RPMI-1640 growth media supplemented with 10% FBS and 2 mmol/L glutamine. […]
Cells were seeded in 384-well black, clear bottomed plates (Greiner Bio-One, Stonehouse, UK), cultured for 18-24 hours and treated with increasing concentrations of Example 18 and selumetinib (0-10 μmol/L) in a 6×6 dosing matrix. […] After 3 days of treatment, live cell number was determined using a Sytox Green endpoint as described previously (“Davies B R, Greenwood H, Dudley P, et al: Preclinical pharmacology of AZD5363, an inhibitor of AKT: Pharmacodynamics, antitumor activity, and correlation of monotherapy activity with genetic background. Mol Cancer Ther 11(4):873-87, 2012”). […] Cells were then permeabilised by the overnight addition of saponin (0.03% final concentration, diluted in TBS-EDTA buffer) and a total cell count measured. […]

COC[C@H]1Cn2cc(-c3nc(Nc4ccnn4C)ncc3C)nc2C(=O)N1Cc1ccc(F)c(F)c1 [Example 18, (R)-7-(3,4-Difluorobenzyl)-6-(methoxymethyl)-2-(5-methyl-2-((1-methyl-1H-pyrazol-5-yl)amino)pyrimidin-4-yl)-6,7-dihydroimidazo[1,2-a]pyrazin-8(5H)-one]
Synergy score: 67.5
